{"source": "ChEMBL document CHEMBL3885861", "about": "“Open TG-GATES”", "organism": "Rattus norvegicus", "assay": "Open TG-GATES - Regimen: Daily Repeat", "assay_type": "toxicity, organism-based, Sprague-Dawley", "set-up": "regimen Daily Repeat, gender Male, age 6 weeks", "conditions": "in vivo, iv, 2 mg/kg, route intravenous injection, dose level Low; for APTT / Bas / Eos / Fbg / Hb / Ht / Lym / MCH / MCHC / MCV / Mono / Neu / PT / Plat / RBC / Ret / WBC: tissue Blood", "key": {"[1]": {"conditions": "72 h, tissue Kidney, time 3 day"}, "[2]": {"conditions": "72 h, tissue Plasma, time 3 day"}}}
{"smiles": "NCCBr", "note": "[BROMOETHANAMINE]", "values": [{"measurement": "TERMINAL_BW", "setting": "72 h, time 3 day", "value": 236.2, "unit": "g"}, {"measurement": "APTT", "setting": "72 h, time 3 day", "value": 22.5, "unit": "s"}, {"measurement": "Bas", "setting": "72 h, time 3 day", "value": 0, "unit": "%"}, {"measurement": "Eos", "setting": "72 h, time 3 day", "value": 1, "unit": "%"}, {"measurement": "Fbg", "setting": "72 h, time 3 day", "value": 280.4, "unit": "mg/dL"}, {"measurement": "Hb", "setting": "72 h, time 3 day", "value": 13.2, "unit": "g/dL"}, {"measurement": "Ht", "setting": "72 h, time 3 day", "value": 38.3, "unit": "%"}, {"measurement": "Lym", "setting": "72 h, time 3 day", "value": 83.2, "unit": "%"}, {"measurement": "MCH", "setting": "72 h, time 3 day", "value": 21.2, "unit": "pg"}, {"measurement": "MCHC", "setting": "72 h, time 3 day", "value": 34.4, "unit": "%"}, {"measurement": "MCV", "setting": "72 h, time 3 day", "value": 61.6, "unit": "fL"}, {"measurement": "Mono", "setting": "72 h, time 3 day", "value": 2.8, "unit": "%"}, {"measurement": "Neu", "setting": "72 h, time 3 day", "value": 12, "unit": "%"}, {"measurement": "PT", "setting": "72 h, time 3 day", "value": 16.2, "unit": "s"}, {"measurement": "Plat", "setting": "72 h, time 3 day", "value": 119.2, "unit": "x10_4/uL"}, {"measurement": "RBC", "setting": "72 h, time 3 day", "value": 620.8, "unit": "x10_4/ul"}, {"measurement": "Ret", "setting": "72 h, time 3 day", "value": 4.7, "unit": "%"}, {"measurement": "WBC", "setting": "72 h, time 3 day", "value": 80.2, "unit": "x10_2/uL"}, {"measurement": "KIDNEY_L", "setting": "[1]", "value": 1, "unit": "g"}, {"measurement": "KIDNEY_R", "setting": "[1]", "value": 1, "unit": "g"}, {"measurement": "KIDNEY_TOTAL", "setting": "[1]", "value": 2, "unit": "g"}, {"measurement": "LIVER", "setting": "72 h, tissue Liver, time 3 day", "value": 11.1, "unit": "g"}, {"measurement": "A/G", "setting": "[2]", "value": 1.3}, {"measurement": "ALP", "setting": "[2]", "value": 1553.4, "unit": "IU/L"}, {"measurement": "ALT", "setting": "[2]", "value": 39.6, "unit": "IU/L"}, {"measurement": "AST", "setting": "[2]", "value": 68.4, "unit": "IU/L"}, {"measurement": "BUN", "setting": "[2]", "value": 16.2, "unit": "mg/dL"}, {"measurement": "CRE", "setting": "[2]", "value": 0.2, "unit": "mg/dL"}, {"measurement": "Ca", "setting": "[2]", "value": 10.8, "unit": "mg/dL"}, {"measurement": "Cl", "setting": "[2]", "value": 106.4, "unit": "meq/L"}, {"measurement": "DBIL", "setting": "[2]", "value": 0, "unit": "mg/dL"}, {"measurement": "GLC", "setting": "[2]", "value": 178.6, "unit": "mg/dL"}, {"measurement": "IP", "setting": "[2]", "value": 7.2, "unit": "mg/dL"}, {"measurement": "K", "setting": "[2]", "value": 4.6, "unit": "meq/L"}, {"measurement": "LDH", "setting": "[2]", "value": 195.6, "unit": "IU/L"}, {"measurement": "Na", "setting": "[2]", "value": 141.8, "unit": "meq/L"}, {"measurement": "PL", "setting": "[2]", "value": 143.4, "unit": "mg/dL"}, {"measurement": "RALB", "setting": "[2]", "value": 3.1, "unit": "g/dL"}, {"measurement": "TBIL", "setting": "[2]", "value": 0.006, "unit": "mg/dL"}, {"measurement": "TC", "setting": "[2]", "value": 73.6, "unit": "mg/dL"}, {"measurement": "TG", "setting": "[2]", "value": 113, "unit": "mg/dL"}, {"measurement": "TP", "setting": "[2]", "value": 5.6, "unit": "g/dL"}, {"measurement": "gamma-GTP", "setting": "[2]", "value": 2, "unit": "IU/L"}, {"measurement": "TERMINAL_BW", "setting": "[…], time 7 day", "value": 254.2, "unit": "g"}, {"measurement": "TERMINAL_BW", "setting": "[…], time 14 day", "value": 302.2, "unit": "g"}, {"measurement": "TERMINAL_BW", "setting": "[…], time 28 day", "value": 366.5, "unit": "g"}, {"measurement": "APTT", "setting": "[…], time 7 day", "value": 22.7, "unit": "s"}, {"measurement": "Bas", "setting": "[…], time 7 day", "value": 0, "unit": "%"}, {"measurement": "Eos", "setting": "[…], time 7 day", "value": 0.8, "unit": "%"}, {"measurement": "Fbg", "setting": "[…], time 7 day", "value": 278.8, "unit": "mg/dL"}, {"measurement": "Hb", "setting": "[…], time 7 day", "value": 13.5, "unit": "g/dL"}, {"measurement": "Ht", "setting": "[…], time 7 day", "value": 39.3, "unit": "%"}, {"measurement": "Lym", "setting": "[…], time 7 day", "value": 80.6, "unit": "%"}, {"measurement": "MCH", "setting": "[…], time 7 day", "value": 21, "unit": "pg"}, {"measurement": "MCHC", "setting": "[…], time 7 day", "value": 34.4, "unit": "%"}, {"measurement": "MCV", "setting": "[…], time 7 day", "value": 61, "unit": "fL"}, {"measurement": "Mono", "setting": "[…], time 7 day", "value": 2.8, "unit": "%"}, {"measurement": "Neu", "setting": "[…], time 7 day", "value": 15, "unit": "%"}, {"measurement": "PT", "setting": "[…], time 7 day", "value": 15.8, "unit": "s"}, {"measurement": "Plat", "setting": "[…], time 7 day", "value": 116.6, "unit": "x10_4/uL"}, {"measurement": "RBC", "setting": "[…], time 7 day", "value": 644, "unit": "x10_4/ul"}, {"measurement": "Ret", "setting": "[…], time 7 day", "value": 3.9, "unit": "%"}, {"measurement": "WBC", "setting": "[…], time 7 day", "value": 126.7, "unit": "x10_2/uL"}, {"measurement": "APTT", "setting": "[…], time 14 day", "value": 23, "unit": "s"}, {"measurement": "Bas", "setting": "[…], time 14 day", "value": 0, "unit": "%"}, {"measurement": "Eos", "setting": "[…], time 14 day", "value": 1, "unit": "%"}, {"measurement": "Fbg", "setting": "[…], time 14 day", "value": 310.8, "unit": "mg/dL"}, {"measurement": "Hb", "setting": "[…], time 14 day", "value": 14.1, "unit": "g/dL"}, {"measurement": "Ht", "setting": "[…], time 14 day", "value": 40.3, "unit": "%"}, {"measurement": "Lym", "setting": "[…], time 14 day", "value": 84.8, "unit": "%"}, {"measurement": "MCH", "setting": "[…], time 14 day", "value": 20.5, "unit": "pg"}, {"measurement": "MCHC", "setting": "[…], time 14 day", "value": 35, "unit": "%"}, {"measurement": "MCV", "setting": "[…], time 14 day", "value": 58.7, "unit": "fL"}, {"measurement": "Mono", "setting": "[…], time 14 day", "value": 2.2, "unit": "%"}, {"measurement": "Neu", "setting": "[…], time 14 day", "value": 11.4, "unit": "%"}, {"measurement": "PT", "setting": "[…], time 14 day", "value": 15.8, "unit": "s"}, {"measurement": "Plat", "setting": "[…], time 14 day", "value": 116.5, "unit": "x10_4/uL"}, {"measurement": "RBC", "setting": "[…], time 14 day", "value": 686.6, "unit": "x10_4/ul"}, {"measurement": "Ret", "setting": "[…], time 14 day", "value": 3.3, "unit": "%"}, {"measurement": "WBC", "setting": "[…], time 14 day", "value": 104.7, "unit": "x10_2/uL"}, {"measurement": "APTT", "setting": "[…], time 28 day", "value": 24.7, "unit": "s"}, {"measurement": "Bas", "setting": "[…], time 28 day", "value": 0, "unit": "%"}, {"measurement": "Eos", "setting": "[…], time 28 day", "value": 1, "unit": "%"}, {"measurement": "Fbg", "setting": "[…], time 28 day", "value": 305.8, "unit": "mg/dL"}, {"measurement": "Hb", "setting": "[…], time 28 day", "value": 15.7, "unit": "g/dL"}, {"measurement": "Ht", "setting": "[…], time 28 day", "value": 42.4, "unit": "%"}]}
